According to patent US12448433B2, “Human ApoB100 epitopes, methods and uses for modulating inflammatory responses, and treating adverse cardiovascular events, disease and atherosclerosis” (LA JOLLA INSTITUTE FOR ALLERGY AND IMMUNOLOGY, priority 2015, dated 2025):

How the values were obtained:
DPB1*03:01 = assay: Peptide binding to HLA-DP allele, competition assay; parameters: species or system human
Text: (§1) Peptide binding to MHC-II requires anchor residues in certain positions and thus can be predicted using computer algorithms. Affinity can be measured experimentally using a competition assay (1). Both are excellent screening tools. However, affinity must be measured separately for each MHC-II allele. Humans express molecules encoded in four different MHC-II loci, denominated HLA-DRB1, DRB3/4/5, DP and DQ. Allelic variation is large, and most people are heterozygous at each locus, thus expressing up to 8 relevant MHC-II alleles. CD4 T cell responses strictly require that the antigenic peptide binds to the relevant MHC-II.
(§2) To identify peptides that could potentially be used in human patients, 30 peptides were screened for binding to 26 HLA alleles by competition assay.

DPB1*14:01 = assay: as above; parameters: species or system human
Text: as §1, §2

DQB1*06:02 = assay: Peptide binding to HLA-DQ allele, competition assay; parameters: species or system human
Text: as §1, §2

DRB1*15:01 = DRB1*15:01 (Homo sapiens, UniProt P01903+P01911); assay: Peptide binding to HLA-DR allele, competition assay
Text: as §1, §2

DRB5*01:01 = DRB5*01:01 (Homo sapiens, UniProt P01903+Q30154); assay: as above
Text: as §1, §2

DPB1*05:01 = assay: Peptide binding to HLA-DP allele, competition assay; parameters: species or system human
Text: as §1, §2

DQB1*05:01 = assay: Peptide binding to HLA-DQ allele, competition assay; parameters: species or system human
Text: as §1, §2

DRB1*09:01 = DRB1*09:01 (Homo sapiens, UniProt P01903+P01911, A100R/A103E/D57H/D86V/F55Y/F60I/F76Y/I96F/K127E/L162R/M171V/P40D/Q125H/Q99R/R33Q/R42F/S133A/S66N/T210M/V115G/W38K/Y107V/Y59G/Y89S); assay: Peptide binding to HLA-DR allele, competition assay
Text: as §1, §2

DRB1*11:01 = DRB1*11:01 (Homo sapiens, UniProt P01903+P01911, A100R/A169T/A87E/I96F/K41T/L162R/M171V/P40S/Q125H/Q178H/Q39Y/Q99D/R42S/S66Y/T262R/V115G/W38E); assay: as above
Text: as §1, §2

DRB1*13:02 = DRB1*13:02 (Homo sapiens, UniProt P01903+P01911, A100E/A169T/K41T/L162R/M171V/P40S/Q125H/Q178H/Q39Y/Q99D/R42S/S66N/T262R/V115G/W38E/Y61H); assay: as above
Text: as §1, §2

HLA-DRB1*01:01 = HLA-DRB1*01:01 (Homo sapiens, UniProt P01903+P01911, A100R/D57E/F55L/F60I/F76Y/I96L/L162R/M171V/P40L/Q125E/R42F/V115G/Y59C); assay: as above
Text: as §1, §2

DPB1*02:01 = assay: Peptide binding to HLA-DP allele, competition assay; parameters: species or system human
Text: as §1, §2

DPB1*04:02 = assay: as above; parameters: species or system human
Text: as §1, §2

DPB1*04:01 = biological target: T1, DPB1*04:01 (Homo sapiens, UniProt P04440); assay: as above
T1 sequence (P04440 30-258): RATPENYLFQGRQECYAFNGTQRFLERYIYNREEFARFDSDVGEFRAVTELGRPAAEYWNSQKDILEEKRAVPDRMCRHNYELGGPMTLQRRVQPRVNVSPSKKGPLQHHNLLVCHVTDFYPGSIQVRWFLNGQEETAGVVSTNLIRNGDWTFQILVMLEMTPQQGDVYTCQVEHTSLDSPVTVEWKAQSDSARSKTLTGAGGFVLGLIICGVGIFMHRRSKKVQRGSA
T1 sequence (P20036 29-260 partner): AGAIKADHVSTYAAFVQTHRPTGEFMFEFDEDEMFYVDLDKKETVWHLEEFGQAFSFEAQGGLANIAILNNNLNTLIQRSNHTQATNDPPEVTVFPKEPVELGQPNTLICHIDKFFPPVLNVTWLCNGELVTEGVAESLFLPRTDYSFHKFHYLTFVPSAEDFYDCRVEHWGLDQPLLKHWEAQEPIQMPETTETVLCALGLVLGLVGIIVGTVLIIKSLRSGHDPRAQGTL
Text: as §1, §2

DRB1*04:05 = DRB1*04:05 (Homo sapiens, UniProt P01903+P01911, A100R/A169T/D86S/F76Y/I96L/K127E/L162R/M171V/N62H/P40V/Q125Y/R42H/S133A/S149N/S66Y/V115G/V209L/W38E); assay: Peptide binding to HLA-DR allele, competition assay
Text: as §1, §2

Compound | IC50 (DPB1*03:01) [nM] | IC50 (DPB1*14:01) [nM] | IC50 (DQB1*06:02) [nM] | IC50 (DRB1*15:01) [nM] | IC50 (DRB5*01:01) [nM] | IC50 (DPB1*05:01) [nM] | IC50 (DQB1*05:01) [nM] | IC50 (DRB1*09:01) [nM] | IC50 (DRB1*11:01) [nM] | IC50 (DRB1*13:02) [nM] | IC50 (HLA-DRB1*01:01) [nM] | IC50 (DPB1*02:01) [nM] | IC50 (DPB1*04:02) [nM] | IC50 (DPB1*04:01) [nM] | IC50 (DRB1*04:05) [nM]
CC[C@H](C)[C@H](N)C(=O)N[C@@H](CCCCN)C(=O)N[C@@H](Cc1c[nH]cn1)C(=O)N[C@H](C(=O)N[C@@H](Cc1ccc(O)cc1)C(=O)N[C@@H](C)C(=O)N[C@H](C(=O)N[C@@H](CO)C(=O)N[C@@H](CO)C(=O)N[C@@H](C)C(=O)N[C@@H](C)C(=O)N[C@@H](CC(C)C)C(=O)N[C@@H](CO)C(=O)N[C@@H](C)C(=O)N[C@@H](CO)C(=O)O)[C@@H](C)CC)[C@@H](C)CC [Peptide 3563.0009] | 90 | 132 | 66 | 1.1 | 18 |  |  |  |  |  |  |  |  |  | 
CC(C)C[C@H](NC(=O)CNC(=O)[C@@H](N)CCCNC(=N)N)C(=O)N[C@@H](CCCCN)C(=O)N[C@@H](CC(C)C)C(=O)N[C@@H](C)C(=O)N[C@H](C(=O)N[C@@H](C)C(=O)N[C@@H](CC(C)C)C(=O)N[C@@H](CO)C(=O)N[C@@H](CC(C)C)C(=O)N[C@@H](CO)C(=O)N[C@@H](CC(N)=O)C(=O)N[C@@H](CCCCN)C(=O)N[C@@H](Cc1ccccc1)C(=O)O)[C@@H](C)O [Peptide 3563.0020] |  | 183 | 245 |  |  | 9.8 | 2630 | 17 | 1200 | 1.1 | 7.1 |  |  |  | 
CC[C@H](C)[C@H](NC(=O)[C@H](C)NC(=O)[C@H](CCCCN)NC(=O)[C@H](Cc1ccccc1)NC(=O)[C@@H](NC(=O)[C@H](CCC(=O)O)NC(=O)[C@@H](N)CCC(N)=O)C(C)C)C(=O)N[C@@H](CCC(N)=O)C(=O)N[C@@H](CO)C(=O)N[C@@H](CC(C)C)C(=O)N[C@@H](CCCCN)C(=O)N[C@H](C(=O)N[C@H](C(=O)N[C@@H](CCC(=O)O)C(=O)N[C@H](C(=O)O)C(C)C)[C@@H](C)O)[C@@H](C)O [Peptide 3563.0024] |  | 1780 |  |  |  | 369 |  | 46 |  |  |  | 200 | 93 | 16 | 18
